Measurements as given in patent US20150133411A1, “COMPOUNDS WITH TRPV4 ACTIVITY, COMPOSITIONS AND ASSOCIATED METHODS THEREOF” (The University of Utah Research Foundation, priority 2012, published 2015).

Legend:
[1] = system: MB mouse model of glaucoma; experiment: IOP in microbead (MB) mouse model of glaucoma, IP dosing; type: in vivo; conditions: 10 mg/kg body weight IP; MB-injected mice
Procedure: FIG. 2 confirms that the mouse model for glaucoma causes RGC degeneration. Specifically, microbeads (MBs) were injected into the anterior chamber of a mouse eye. The MBs increase intraocular IOP above 15 mm Hg by blocking outflow of the aqueous humor within the anterior chamber of the eye. MBs were reinjected as needed to maintain a high IOP, typically one injection every two weeks. Contralateral eyes were injected intraocularly with the vehicle PBS (phosphate buffered saline) as controls. […] IOP levels were measured at least twice weekly before and after intraocular injections. After injections, mice recovered for 48 hours before IOP measurements resumed. […] Retinas were then removed and processed for immunohistochemistry (IHC). […] After rinsing with PBS, PBS containing the secondary antibody conjugated to fluorophores (Alexa 488 or Alexa 594; […] Retinas were rinsed and flat-mounted on microscope slides. Mounting medium was added and retinal wholemounts were coverslipped. The density of RGCs was imaged with a confocal microscope (Zeiss LSM 510) and quantified by counting NeuN-, CFP- and/or Tuj-1-labeled somata in the RGC layer of the retinal wholemount preparation. Injection of microbeads induces RGC degeneration after 8 weeks but not after 4 weeks. […] Mice were sedated with IP injection of Avertin with final amount calculated by weight (e.g., 0.5 ml for 21-24 g animals). […]

TRPV4 = TRPV4 (Mus musculus, UniProt Q9EPK8); experiment: GSK-evoked [Ca++]i in retinal Müller glial cells; type: cell-based; design: endogenous in cells; host or cells: retinal Müller glial cells
Sequence of TRPV4 (Q9EPK8 whole entry): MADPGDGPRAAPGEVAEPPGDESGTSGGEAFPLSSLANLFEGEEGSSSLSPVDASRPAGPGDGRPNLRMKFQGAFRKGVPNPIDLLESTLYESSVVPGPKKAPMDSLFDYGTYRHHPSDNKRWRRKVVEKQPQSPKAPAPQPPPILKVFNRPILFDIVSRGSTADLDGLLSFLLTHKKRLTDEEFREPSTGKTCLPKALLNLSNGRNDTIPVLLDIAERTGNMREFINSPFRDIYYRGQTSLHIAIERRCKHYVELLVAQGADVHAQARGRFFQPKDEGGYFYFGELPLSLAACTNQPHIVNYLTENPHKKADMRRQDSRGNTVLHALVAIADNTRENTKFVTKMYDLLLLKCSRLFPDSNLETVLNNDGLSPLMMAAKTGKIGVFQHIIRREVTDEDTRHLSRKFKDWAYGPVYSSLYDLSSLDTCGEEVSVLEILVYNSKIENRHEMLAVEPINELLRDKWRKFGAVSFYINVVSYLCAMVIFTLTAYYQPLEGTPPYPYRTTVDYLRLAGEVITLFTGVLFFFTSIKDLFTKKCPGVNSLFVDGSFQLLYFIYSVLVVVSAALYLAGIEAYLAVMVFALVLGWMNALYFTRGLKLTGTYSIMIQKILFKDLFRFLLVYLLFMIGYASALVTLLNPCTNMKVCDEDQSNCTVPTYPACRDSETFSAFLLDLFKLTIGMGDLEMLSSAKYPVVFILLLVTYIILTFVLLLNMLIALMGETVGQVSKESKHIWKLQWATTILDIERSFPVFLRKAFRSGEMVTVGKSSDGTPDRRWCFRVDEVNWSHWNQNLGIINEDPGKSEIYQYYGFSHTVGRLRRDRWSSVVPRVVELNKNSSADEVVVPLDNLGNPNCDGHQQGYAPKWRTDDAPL

Müller cells = experiment: Arachidonic acid-induced [Ca2+]i in Müller cells; type: cell-based; conditions: 1 μM, 10 μM arachidonic acid
Procedure: This response is blocked by Compound 1 (1 μM).

**Q.** With `Cc1c(C(=O)Nc2cccc(C(F)(F)F)c2)cc(-c2ccccc2)n1CCCN1CCOCC1` [Compound 1, N-(3-(trifluoromethyl)phenyl)-2-methyl-1-(3-morpholinopropyl)-5-phenyl-1H-pyrrole-3-carboxamide] as the compound, how does the “MB-induced increase in IOP” value [1] read?
**A.** blocked the increase in IOP to the level observed in control mice

**Q.** What about the “effect on GSK-evoked increase in [Ca++]i” value (TRPV4; retinal Müller glial cells) of the same compound?
**A.** blocked

**Q.** And the “reversibility of effect on glial calcium levels” value (TRPV4; superfusion with control saline)?
**A.** reversible, as it can be washed out by 10 minute superfusion with control saline

**Q.** What about the “effect on arachidonic acid-induced [Ca2+]i increase” value (Müller cells) of the same compound?
**A.** blocked
